The values that follow come from ChEMBL document CHEMBL6078670, “Discovery of a potent and selective TRPC3 antagonist with neuroprotective effects” (Bioorg Med Chem, 2025).

Activity calls are given as the source filed them. No cut-off for these calls is given here.

Data set [1] concerns the target T1, Short transient receptor potential channel 6 (Homo sapiens) (UniProt Q9Y210).
T1 sequence (whole entry): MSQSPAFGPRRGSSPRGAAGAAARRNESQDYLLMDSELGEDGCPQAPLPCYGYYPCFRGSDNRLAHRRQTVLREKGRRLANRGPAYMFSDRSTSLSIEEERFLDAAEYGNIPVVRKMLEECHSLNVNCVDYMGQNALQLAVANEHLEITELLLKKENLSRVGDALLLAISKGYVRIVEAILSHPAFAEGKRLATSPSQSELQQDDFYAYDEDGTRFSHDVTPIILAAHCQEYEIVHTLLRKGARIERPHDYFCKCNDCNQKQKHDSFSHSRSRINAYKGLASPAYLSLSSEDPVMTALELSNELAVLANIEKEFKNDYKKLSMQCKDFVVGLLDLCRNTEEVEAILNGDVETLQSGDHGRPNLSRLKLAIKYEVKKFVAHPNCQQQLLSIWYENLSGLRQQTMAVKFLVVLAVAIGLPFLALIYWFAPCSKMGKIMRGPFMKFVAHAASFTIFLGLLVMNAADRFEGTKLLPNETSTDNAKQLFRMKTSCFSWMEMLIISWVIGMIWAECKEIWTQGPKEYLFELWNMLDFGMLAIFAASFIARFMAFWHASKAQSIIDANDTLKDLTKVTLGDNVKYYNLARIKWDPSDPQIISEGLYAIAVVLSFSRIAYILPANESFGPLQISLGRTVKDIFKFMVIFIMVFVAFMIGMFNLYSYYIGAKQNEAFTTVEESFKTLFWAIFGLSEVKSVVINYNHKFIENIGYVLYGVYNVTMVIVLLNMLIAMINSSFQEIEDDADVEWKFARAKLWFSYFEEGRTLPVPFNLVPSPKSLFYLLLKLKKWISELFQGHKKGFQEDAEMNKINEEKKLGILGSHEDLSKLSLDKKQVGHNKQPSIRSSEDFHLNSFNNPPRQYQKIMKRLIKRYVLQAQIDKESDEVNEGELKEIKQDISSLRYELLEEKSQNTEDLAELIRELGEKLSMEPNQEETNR
Briefly: Antagonist activity at human TRPC6 expressed in HEK293 cells assessed as inhibition of carbachol-induced activity at 10 uM measured after 48 hrs by Whole-cell patch clamp electrophysiology. The data set is classed as cell-based.

The target of data set [2] is T2, Short transient receptor potential channel 7 (Homo sapiens) (UniProt Q9HCX4).
T2 sequence (whole entry): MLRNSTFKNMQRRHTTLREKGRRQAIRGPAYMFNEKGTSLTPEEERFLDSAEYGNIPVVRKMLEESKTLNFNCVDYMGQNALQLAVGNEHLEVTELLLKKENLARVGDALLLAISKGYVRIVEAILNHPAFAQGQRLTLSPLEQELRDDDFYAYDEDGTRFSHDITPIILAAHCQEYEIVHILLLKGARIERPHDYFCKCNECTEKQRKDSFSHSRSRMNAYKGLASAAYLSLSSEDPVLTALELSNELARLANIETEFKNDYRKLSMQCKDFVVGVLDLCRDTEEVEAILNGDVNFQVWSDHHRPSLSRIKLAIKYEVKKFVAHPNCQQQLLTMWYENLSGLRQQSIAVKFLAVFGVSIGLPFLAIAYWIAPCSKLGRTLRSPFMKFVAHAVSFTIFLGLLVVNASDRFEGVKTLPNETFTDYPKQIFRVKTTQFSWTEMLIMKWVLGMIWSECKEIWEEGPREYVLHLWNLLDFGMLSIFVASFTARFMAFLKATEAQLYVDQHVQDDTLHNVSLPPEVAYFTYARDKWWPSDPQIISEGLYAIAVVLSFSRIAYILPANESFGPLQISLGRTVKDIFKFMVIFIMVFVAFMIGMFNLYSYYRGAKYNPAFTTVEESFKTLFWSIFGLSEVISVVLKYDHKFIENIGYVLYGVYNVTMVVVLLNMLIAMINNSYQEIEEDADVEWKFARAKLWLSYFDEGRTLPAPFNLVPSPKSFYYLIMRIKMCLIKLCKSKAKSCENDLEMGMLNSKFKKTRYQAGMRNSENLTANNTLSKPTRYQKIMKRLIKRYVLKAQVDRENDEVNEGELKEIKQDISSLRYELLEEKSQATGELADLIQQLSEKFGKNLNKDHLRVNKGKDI
Nature of the data set: Antagonist activity at human TRPC7 expressed in HEK293 cells assessed as inhibition of carbachol-induced activity at 10 uM measured after 48 hrs by Whole-cell patch clamp electrophysiology. The data set is classed as cell-based. For orientation: The patch-clamp technique gives a direct electrical read-out from membranes.

In data set [3] the target is Short transient receptor potential channel 1 (Mus musculus) (UniProt Q61056). Nature of the data set: Antagonist activity at mouse TRPC1 expressed in HEK293 cells assessed as inhibition of carbachol-induced activity at 10 uM measured after 48 hrs by Whole-cell patch clamp electrophysiology. Type of data set: cell-based.
Short transient receptor potential channel 1 (Mus musculus), sequence (Q61056 whole entry): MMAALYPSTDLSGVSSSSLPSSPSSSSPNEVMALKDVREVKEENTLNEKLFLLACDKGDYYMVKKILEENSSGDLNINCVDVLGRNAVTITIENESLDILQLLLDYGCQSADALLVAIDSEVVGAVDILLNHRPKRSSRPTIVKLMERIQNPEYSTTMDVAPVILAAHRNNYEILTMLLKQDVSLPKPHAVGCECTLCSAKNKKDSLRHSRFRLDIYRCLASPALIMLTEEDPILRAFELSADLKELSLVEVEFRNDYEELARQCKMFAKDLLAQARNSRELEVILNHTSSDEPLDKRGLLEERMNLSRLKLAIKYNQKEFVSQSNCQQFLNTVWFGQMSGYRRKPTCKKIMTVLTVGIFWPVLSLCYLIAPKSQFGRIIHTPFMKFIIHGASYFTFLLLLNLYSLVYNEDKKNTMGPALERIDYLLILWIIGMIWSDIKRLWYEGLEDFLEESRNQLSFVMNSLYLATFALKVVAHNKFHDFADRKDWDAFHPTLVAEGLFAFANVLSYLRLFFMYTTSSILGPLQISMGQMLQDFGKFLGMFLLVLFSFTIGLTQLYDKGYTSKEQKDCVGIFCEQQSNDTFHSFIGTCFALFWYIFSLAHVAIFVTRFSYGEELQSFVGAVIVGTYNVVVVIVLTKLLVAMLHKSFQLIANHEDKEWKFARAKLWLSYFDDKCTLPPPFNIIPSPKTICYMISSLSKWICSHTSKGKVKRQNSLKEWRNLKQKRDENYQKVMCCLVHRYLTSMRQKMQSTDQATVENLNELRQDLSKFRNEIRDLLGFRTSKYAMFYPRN
Data set [4] has as its target Transient receptor potential cation channel subfamily M member 8 (Rattus norvegicus) (UniProt Q8R455). Nature of the data set: Antagonist activity at rat TRPM8 expressed in HEK293 cells assessed as inhibition of carbachol-induced activity at 10 uM measured after 48 hrs by Whole-cell patch clamp electrophysiology. Type of data set: cell-based.
Data set [5] can be described thus: Metabolic stability in human liver microsomes assessed as half life measured up to 60 mins by LC-MS/MS analysis. To be noted: 1 h. The data set is classed as ADME, Microsome. A general note: Microsomes from liver hold many membrane-bound enzymes, among them those of drug oxidation.
Data set [6] can be described thus: Metabolic stability in human liver microsomes assessed as intrinsic clearance measured up to 60 mins by LC-MS/MS analysis. The data set is classed as ADME, Microsome. To be noted: 1 h.
Another data set has as its target Cytochrome P450 2C9 (Homo sapiens, UniProt P11712). Nature of the data set: Inhibition of human liver microsomes CYP2C9 measured after 10 mins incubation by LC-MS analysis. The data set is classed as ADME, Microsome.
A further data set addresses Cytochrome P450 2C19 (Homo sapiens, UniProt P33261). Briefly: Inhibition of human liver microsomes CYP2C19 measured after 10 mins incubation by LC-MS analysis. The data set is classed as ADME, Microsome.
For data set [7], the system named is Hippocampal neurone. Briefly: Rescuing beta-amyloid induced neuronal cell damage in Sprague-Dawley rat primary hippocampal cell culture (composed of 60% primary neuron, 20% microglia and 20% astrocyte) assessed as decrease in soluble oligomeric Abeta-containing media (7PA2 cells) induced synaptic toxicity at 100 nM. Type of data set: functional, cell-based.
A short description of data set [8]: Cytotoxicity against Sprague-Dawley rat primary hippocampal cells at 100 nM. Type of data set: toxicity, cell-based. The following applies: hippocampal neurone, 0.1 µM.
Data set [9] relates to Hippocampal neurone. Briefly: Rescuing beta-amyloid induced neuronal cell damage in Sprague-Dawley rat primary hippocampal cell culture (composed of 60% primary neuron, 20% microglia and 20% astrocyte) assessed as decrease in soluble oligomeric Abeta-containing media (7PA2 cells) induced functional synapses by measuring decrease in SynI clustering level at 100 nM. Type of data set: cell-based.

In data set [10] the test system is Hippocampal neurone. Nature of the data set: Rescuing beta-amyloid induced neuronal cell damage in Sprague-Dawley rat primary hippocampal cell culture (composed of 60% primary neuron, 20% microglia and 20% astrocyte) assessed as decrease in soluble oligomeric Abeta-containing media (7PA2 cells) induced microgliosis (Iba1) at 500 nM by immunostaining analysis. Type of data set: functional, cell-based.

Broadly, the IC50 is the concentration that gives 50% inhibition. The low end stands for inhibition by little substance, the high end for a need for much substance.

Transient receptor potential cation channel subfamily M member 8 (Rattus norvegicus), sequence (Q8R455 whole entry, looked up): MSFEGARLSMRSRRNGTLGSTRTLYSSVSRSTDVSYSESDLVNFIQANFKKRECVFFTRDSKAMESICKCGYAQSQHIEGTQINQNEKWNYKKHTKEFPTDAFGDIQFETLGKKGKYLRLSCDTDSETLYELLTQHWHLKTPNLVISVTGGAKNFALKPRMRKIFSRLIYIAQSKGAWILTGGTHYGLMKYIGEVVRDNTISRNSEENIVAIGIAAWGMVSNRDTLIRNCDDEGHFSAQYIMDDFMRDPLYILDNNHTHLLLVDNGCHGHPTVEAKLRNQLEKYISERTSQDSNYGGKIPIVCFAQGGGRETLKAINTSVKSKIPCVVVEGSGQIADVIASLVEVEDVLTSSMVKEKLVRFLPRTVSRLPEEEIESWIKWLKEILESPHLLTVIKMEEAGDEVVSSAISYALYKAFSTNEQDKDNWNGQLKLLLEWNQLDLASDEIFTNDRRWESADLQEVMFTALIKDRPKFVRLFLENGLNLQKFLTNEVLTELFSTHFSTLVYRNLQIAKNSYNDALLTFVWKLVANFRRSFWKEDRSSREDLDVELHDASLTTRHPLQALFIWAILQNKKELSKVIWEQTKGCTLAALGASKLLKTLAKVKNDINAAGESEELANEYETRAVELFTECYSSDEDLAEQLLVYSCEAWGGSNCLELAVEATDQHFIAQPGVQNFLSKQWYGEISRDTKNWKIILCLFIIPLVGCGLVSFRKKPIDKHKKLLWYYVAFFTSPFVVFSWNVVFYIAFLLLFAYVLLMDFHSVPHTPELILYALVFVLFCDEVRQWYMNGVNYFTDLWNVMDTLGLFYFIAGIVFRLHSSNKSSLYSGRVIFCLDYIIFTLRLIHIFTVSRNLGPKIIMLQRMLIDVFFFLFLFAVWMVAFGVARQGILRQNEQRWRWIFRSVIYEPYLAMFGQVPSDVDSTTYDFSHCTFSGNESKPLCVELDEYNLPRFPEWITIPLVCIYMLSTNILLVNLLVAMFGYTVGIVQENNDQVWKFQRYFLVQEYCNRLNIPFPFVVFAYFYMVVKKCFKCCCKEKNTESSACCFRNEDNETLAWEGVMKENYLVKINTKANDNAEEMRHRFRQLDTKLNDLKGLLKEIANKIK
Cytochrome P450 2C9, sequence (P11712 whole entry): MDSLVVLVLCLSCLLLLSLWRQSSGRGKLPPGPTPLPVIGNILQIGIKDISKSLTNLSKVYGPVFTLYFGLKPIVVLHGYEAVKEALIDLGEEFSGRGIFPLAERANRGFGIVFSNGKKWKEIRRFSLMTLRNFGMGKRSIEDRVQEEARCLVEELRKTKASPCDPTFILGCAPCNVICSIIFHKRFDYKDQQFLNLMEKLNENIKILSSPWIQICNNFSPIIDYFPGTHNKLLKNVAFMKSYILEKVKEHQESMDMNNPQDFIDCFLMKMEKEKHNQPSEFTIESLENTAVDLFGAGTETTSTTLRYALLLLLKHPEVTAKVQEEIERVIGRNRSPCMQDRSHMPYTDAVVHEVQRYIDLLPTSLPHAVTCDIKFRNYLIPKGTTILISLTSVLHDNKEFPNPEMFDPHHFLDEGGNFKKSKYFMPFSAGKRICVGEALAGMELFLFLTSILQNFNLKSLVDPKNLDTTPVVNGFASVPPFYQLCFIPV
Cytochrome P450 2C19, sequence (P33261 whole entry): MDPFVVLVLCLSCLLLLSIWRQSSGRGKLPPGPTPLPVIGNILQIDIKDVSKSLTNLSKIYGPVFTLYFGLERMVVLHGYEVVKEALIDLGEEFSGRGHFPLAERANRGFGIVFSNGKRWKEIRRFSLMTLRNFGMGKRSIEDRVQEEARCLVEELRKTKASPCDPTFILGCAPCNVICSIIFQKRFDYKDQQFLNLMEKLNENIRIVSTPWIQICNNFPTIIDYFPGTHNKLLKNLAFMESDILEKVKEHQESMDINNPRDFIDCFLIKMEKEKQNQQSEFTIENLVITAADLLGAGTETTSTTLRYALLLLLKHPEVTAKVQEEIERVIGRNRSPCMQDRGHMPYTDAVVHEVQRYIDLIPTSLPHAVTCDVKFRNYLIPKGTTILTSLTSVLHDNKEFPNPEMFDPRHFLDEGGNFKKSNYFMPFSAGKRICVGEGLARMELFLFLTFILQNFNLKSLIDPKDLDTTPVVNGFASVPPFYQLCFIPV

Take `CCNCc1cnn(-c2ccc(-n3ccc(Cl)c(Cl)c3=O)cc2)c1C(F)(F)F`: the outcome in [1], in [2], in data set [3] and in data set [4] was inactive. Besides, the t1/2 in data set [5] is 3.17 h. For the same compound, in data set [6], the CLH came to 3.73 µL/min/mg. In addition, the half-inhibitory concentration (IC50) is greater than 50 µM against Cytochrome P450 2C9 and 41.5 µM against Cytochrome P450 2C19. The result in the data set on Hippocampal neurone [7], in the data set on Hippocampal neurone [9] and in the data set with Hippocampal neurone [10] was Active. The Activity entry in data set [8] is reported as “Non-toxic”.
